Patent publication US20240131356A1, “COMBINATION OF INTRACELLULAR AND EXTRACELLULAR PHOTOSENSITIZERS FOR TREATMENT OF BACTERIAL INFECTION” (priority 2021, published 2024)
Entries after “also recorded” stand apart in the source; their conditions may differ. Read-outs that look alike come from different tables or passages of the source.

Assays:
[1] = tested on: hrtAB promoter (HssRS activation; CgoX activation); assay: XylE colorimetric reporter assay (phrt.xylE), activation of HssRS / hrtAB expression; format: cell-based, Staphylococcus aureus strain Newman; conditions: for XylE activity in comparison to '8882 at 10 μM: six-hour exposure (FIG. 2A); for Specifc Activity (nMol/min*mg), data collected at 10 uM: footnote a: data collected at 10 uM
Protocol: (§1) To maximize the production of coproporphyrin III and thereby increase blue-light mediated killing of S. aureus, synthesized analogs of VU0038882 were tested. To determine the relative efficacy of each analog, a Newman strain of S. aureus, transformed with the phrt.xylE (11) reporter vector was used. This reporter allows for colorimetric assessment of intracellular heme production. To perform the assay, each individual analog was added to 3 mL of TSB+10 μg/mL chloramphenicol to reach a concentration of 30 μM, and then 700 μL of this newly made 30 μM solution was added to 1.3 mL of remaining TSB+10 μg/mL chloramphenicol media to create the 10 μM concentration. Either 10 μM or 30 μM concentrations of compounds in medium were then aliquoted into three 0.5 mL replicate tubes. Three separate 16- to 18-hour overnight subcultures from isolated colonies were back-diluted 1:100 into the tubes creating three biological replicates and were subcultured for 6 hours at 37° C. and 180 rpm. After incubation, the cells were pelleted at 16,400 g for 5 minutes and the supernatant aspirated before washing with 0.5 mL of 20 mM potassium phosphate wash buffer. After pelleting the cells again at 16,400 g for 5 minutes the wash buffer was aspirated, and the pellets were stored at −80° C. until further use.
When the cells were ready to be lysed and data collected, samples were removed from the −80° C. freezer, allowed to thaw, and resuspended in 150 μL of lysis buffer (100 mM potassium phosphate pH=8.0, 10% v/v acetone, 20 μg/mL lysostaphin) before incubation in a 37° C. bead bath for 20 minutes and then cooled for 5 minutes on ice. The samples were then centrifuged at 16,400 g and 4° C. for 30 minutes to separate the pellet from the lysate, which was then placed into a 96-well microtiter plate and kept on ice. The lysate from each sample was pipetted into 20 μL aliquots on a round-bottom or flat-bottom 96-well plate on ice. The round bottom plate was labeled for bicinchoninic acid assay (BCA) protein content analysis, and 10 μL of BCA standards was added to extra wells on the plate. Protein quantification was performed using a Pierce BCA Protein Assay Kit as per the manufacturer's instructions. While the BCA plate was in the incubator, the flat-bottom plate was prepared by thawing 1 M catechol on ice and making 100 mM potassium phosphate (pH=8.0) assay buffer. After preparing a kinetic read at 375 nm for 10 minutes with a minimal interval between reads, the catechol was diluted 1:1,000 into the assay buffer and quickly dispensed into a sterile basin, then 200 μL of the solution was pipetted into each well using a multichannel pipette. All data were exported into Excel software (Microsoft) and analyzed for specific activity of each compound and activity relative to VU0038882 controls.
After 219 analogs had been screened, the compounds with the best percent VU0038882 activity were tested again following the same protocol, but with twelve replicates per concentration with data expressed as averages ±the standard deviation (SD). Additionally, the top-performing compounds were tested using the XylE protocol with a concentration gradient to determine their half maximal effective concentration (EC50) values.
Photosensitizer-conjugated antibodies expose bacteria to reactive oxygen species (ROS) externally, but this treatment can be paired with small molecule treatment to generate ROS internally via heme biosynthesis pathway intermediates. To discover new compounds capable of activating CgoX and/or displaying less toxicity to eukaryotic cells, a medicinal chemistry campaign was initatied based on systematic alternation of the '8882 structure. Each new analog was tested for the ability to activate HssRS using the previously described XylE colorimetric assay that employs a reporter construct in which the hrtAB promoter is fused to a xylE reporter gene. […]

[2] = tested on: S. aureus; assay: Toxicity of analogs to bacteria in the XylE cultures; format: cell-based, Staphylococcus aureus; conditions: target dose of 30 μM
Protocol: as §1
The most consistent activity with non-furan-containing compounds was found with thiophene replacements.

[3] = tested on: S. aureus strain Newman wild-type (iron-starved); assay: In vitro antimicrobial photodynamic therapy light killing assay; format: cell-based, Staphylococcus aureus; conditions: for Growth inhibition / reduction of CFUs/mL by small molecule plus IR700DX-conjugated anti-IsdA and anti-IsdB mAb mixture: combination with mAb mixture, 63 J/cm^2 690 nm and 50 J/cm^2 395 nm light (FIG. 3A)
Protocol: Iron-chelated bacterial cultures of the indicated strains were prepared. Antibodies of interest were added to 5 mL of iron-chelated TSB at a concentration of 2.5 ug/mL for subculture. These conditions were then separated into four-1 mL aliquots, which was comprised of replicates for both the experimental and control strains. The iron-depleted bacterial strains Newman wildtype and Newman ΔisdABΔspa (40) were then normalized to an OD600 of 1.0 and back diluted 1:100 into each condition from the overnight cultures. These subcultures were then incubated at 37° C. and 180 rpm for 30 minutes, and the bacteria were pelleted via centrifugation for 5 minutes at 16,400 g and 4° C. The pellet was washed twice in 1 mL of cold PBS before being finally resuspended in 1 mL of cold PBS.
During the subculture incubation, a measurement was taken of the power of each light to calculate the time needed to achieve a light dose of 63 J/cm^2 for the 690 nm NIR light (M680L4; Thorlabs) and 50 J/cm^2 for the 395 nm blue-LED (M395L4; Thorlabs) mounted 5 cm above the measurement probe. This measurement was taken using a photodiode and power meter (919P-003-10, 843-R; Newport) with a cutout 3×3 portion of a black 384-well microtiter plate positioned centrally over the measurement probe. The outer wells were covered with aluminum foil to ensure that the measurement taken by the probe was strictly limited to the light that entered the 0.1225 cm^2 area of the well. This approach allowed for the irradiance of the light to be calculated according to (readout (mW)/0.1225 cm^2). This value was then divided into the total light dose for each light and divided by 60 to determine the light dose in minutes. The outputs of the 690 nm and 395 nm LEDs were spatially combined using a long-pass dichroic filter (FF470-Dio; Semrock Inc.) for all experimental conditions where light was present.
The spatial intensity profile of the light output is approximately Gaussian in shape in both directions, so 25 μL of each sample was aliquoted into a 3×3 square on a black 384-well microtiter plate with the center well remaining empty, since it would receive a stronger dose than the surrounding wells. The samples were organized such that the conditions alternated wild-type and knockout in a clockwise fashion, beginning with the lower left corner well. In addition, the center well was centered under the light to equate the radial diminishment of light dose amongst the samples.
To ensure the compounds' efficacy in the full therapeutic regimen and reduce potential unknown variables, each of the compounds was tested with 395 nm or 690 nm wavelengths and with Newman WT or Newman ΔisdAB Δspa. […]

[4] = tested on: S. aureus USA300 luxBADCE; assay: In vivo murine superficial skin (ear) infection model with PDT, bioluminescence imaging; design: species or system BALB/cJ mice; conditions: for Bacterial growth / luminescence in infected mouse ear compared to untreated animals: '8882 plus conjugated antibodies (i.p. and topical) plus 690 nm and 395 nm light, two-day regimen
Protocol: All mice were maintained in compliance with Vanderbilt's Institutional Animal Care and Use Committee regulations (protocol M1800026). To create a superficial skin wound a similar model of infection was used, as previously described (44), with modifications to relocate the area of infection to the inner epithelial layer of each ear. Eight- to 10-week-old female BALB/cJ mice were used for the S. aureus infections. Twenty-four hours prior to infection the mice were injected intraperitoneally with 20 μg/mL of both STAU-149 (anti-IsdA) and STAU-281 (anti-IsdB) in PBS. Overnight cultures of S. aureus USA300 with a chromosomally-integrated luxBADCE cassette (45) were subcultured 1:50 into TSB containing 1 mM 2,2-dipyridyl. Cultures were grown for 3.5 h to reach exponential phase of growth. Cell pellets were washed twice with ice-cold PBS with the original culture volume, centrifuged, and resuspended in 250 μL of ice-cold PBS. Approximately 5×10^7 log-phase CFUs were inoculated in 5 μL of PBS directly onto the surface of the wound present on each ear, and each mouse was again injected intraperitoneally with antibodies. Mice were placed into new sterile cages in groups of three in accordance with their experimental condition. Four hours post-infection, the mice were visualized using the IVIS spectrum (Perkin Elmer) in vivo bioluminescence imaging system, with data being collected with a 5-minute exposure time. Each mouse was then transferred to a nose cone under continuous isoflurane anesthesia and, 30 minutes prior to light exposure, the ears were exposed to 10 ∥L of the 450 ∥M '8882 and 20 μg/mL mAb cocktail in PBS containing 10% DMSO. Control mice were left untreated. The right ventrodorsal ear of each mouse was exposed to the 395-nm LED for 20.6-23.1 minutes delivering a total energy dose of 50 J/cm^2. […]
The left ventrodorsal ear of each mouse was not exposed to light during treatment. […] Luminescence was quantified for individual ears using ImageJ (FIJI) (46-48). […] Post-treatment images were again collected at 5-minute exposure times using the IVIS system and analyzed using ImageJ (FIJI). […]

[5] = Staphylococcus aureus, NEWMAN, read-out: logEC50 (converted)

Compound	XylE activity in comparison to '8882 at 10 μM [1]	logEC50 ([1]; XylE protocol with a concentration gradient, Newman phrt.xylE)	EC50 ([1]; XylE protocol with a concentration gradient, Newman phrt.xylE, read-out: EC50) [µM]	Specifc Activity (nMol/min*mg), data collected at 10 uM ([1]; 6 h subculture)	Toxicity to bacteria (S. aureus) [2]	Specifc Activity @ 30 μM ([1]; 30 μM compound, 6 h subculture, XylE activity normalized to protein) [nmol/min/mg]	EC50 ([1]; Staphylococcus aureus, NEWMAN) [µM]	EC50 [1, 5] [µM]	Decrease of S. aureus viability compared with untreated cells, combined treatment ([3]; '8882 plus IR700DX-conjugated IsdA and IsdB antibodies plus 690 nm and 395 nm light)	Efficacy against S. aureus in PDT, small molecule alone ([3]; alone, with light)	Growth inhibition / reduction of CFUs/mL by small molecule plus IR700DX-conjugated anti-IsdA and anti-IsdB mAb mixture [3]	Growth inhibition / reduction of CFUs/mL by small molecule plus IR700DX-conjugated anti-IsdA and anti-IsdB mAb mixture ([3]; listed as VU0038882)	Bacterial growth / luminescence in infected mouse ear compared to untreated animals [4]	Bacterial growth / luminescence in infected mouse ear compared to untreated animals ([4]; listed as VU00038882)	Bacterial burden in infected mouse ear, antibodies plus '8882 without light ([4]; no light exposure)
2-(5-(5-(Hydroxymethyl)thiophen-2-yl)-1H-pyrazol-3-yl)naphthalen-1-ol [′9952]	highest activity at 10 μM observed to date	−5.182 ± 0.065	6.58	18.10 ± 1.80^a nMol/min*mg	overtly toxic to bacteria; also recorded: exhibiting toxicity to S. aureus	–	–	–	–	–	–	–	–	–	–
Oc1c(-c2cc(-c3ccco3)[nH]n2)ccc2ccccc12 [′8882, 2-(5-(Furan-2-yl)-1H-pyrazol-3-yl)naphthalen-1-ol]	–	–	–	–	–	30.04 ± 10.24	10.5	10.5	10,000 fold	efficacious against S. aureus	significant growth inhibition of S. aureus	greater reduction of CFUs/mL in vitro than either condition alone	significantly less bacterial growth	significant reduction in bacterial luminescence	a reduction in bacterial burden but did not reach the same extent as the combinatorial treatment
Oc1c(-c2cc(-c3ccoc3)[nH]n2)ccc2ccccc12 [′9133, 2-(5-(Furan-3-yl)-1H-pyrazol-3-yl)naphthalen-1-ol]	outperformed '8882	–	–	8.346 ± 1.304^a nMol/min*mg	overtly toxic to bacteria; also recorded: exhibiting toxicity to S. aureus	–	8.17	8.17	–	–	–	–	–	–	–
